Reference: patent publication US6809111B2, “Prodrugs of COX-2 inhibitors” (Pharmacia Corporation, priority 2001, dated 2004)

How the values were obtained:
[1] = system: carrageenan-induced inflammatory response in air pouch; test: Air-pouch model of inflammation (carrageenan); format: in vivo; settings: male Lewis rats
Protocol: Male Lewis rats (175-200 g) were used. Air cavities were produced by subcutaneous injection of 20 mL of sterile air into the intrascapular area of the back. An additional 10 mL of air was injected into the cavity every 3 days to keep the space open. Seven days after the initial air injection, 2 mL of a 1% solution of carrageenan (Sigma) dissolved in saline was injected directly into the pouch to produce an inflammatory response. The volume of exudate was measured […]. The differential cell count was determined by Wright-Giemsa staining. PGE2 and 6-keto-PGF1α were determined in the pouch exudates by specific ELISAs (Cayman Chemicals, Ann Arbor, Mich.).

For `Cc1ccc(-c2cc(C(F)(F)F)nn2-c2ccc(S(=O)(=O)NCCO)cc2)cc1` [Example 3, N-(2-hydroxyethyl)-4-[5-(4-methylphenyl)-3-(trifluoromethyl)-1H1-pyrazol-1-yl]benzenesulfonamide], the melting point was 57.8 °C and the “AIR POUCH TEST % Inhibition @ 20 mg/kg body weight” value [1] was 59%.
For `Cc1ccc(-c2cc(C(F)(F)F)nn2-c2ccc(S(=O)(=O)N(CCO)CCO)cc2)cc1` [Example 4, N,N-bis(2-hydroxyethyl)-4-[5-(4-methylphenyl)-3-(trifluoromethyl)-1H-pyrazol-1-yl]benzenesulfonamide], the melting point was 79.1 °C and the “AIR POUCH TEST % Inhibition @ 20 mg/kg body weight” value [1] was 10%.
